Target: GST tagged truncated human mutant G2019S LRRK2 (Homo sapiens (Human), UniProt Q5S007, G2019S)
Test: LRRK2 Km ATP LanthaScreen Assay
Assay type: biochemical
Conditions: G2019S LRRK2, 134 μM ATP (Km ATP), mean values
Procedure, shortened: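 Enzyme (GST-tagged, truncated) was preincubated with compound for 15 min at RT in 50 mM Tris pH 8.5, 10 mM MgCl2, 0.01% Brij-35, 1 mM EGTA, 2 mM DTT and 0.05 mM orthovanadate. Fluorescein-LRRKtide and 134 μM ATP (Km) were then added for 90 min. EDTA and Tb-anti-pERM antibody stopped the reaction; the TR-FRET 520/495 ratio gave 4-parameter IC50s, reported as mean pIC50.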

Chain of GST tagged truncated human mutant G2019S LRRK2 (Q5S007 970-2527 G2019S): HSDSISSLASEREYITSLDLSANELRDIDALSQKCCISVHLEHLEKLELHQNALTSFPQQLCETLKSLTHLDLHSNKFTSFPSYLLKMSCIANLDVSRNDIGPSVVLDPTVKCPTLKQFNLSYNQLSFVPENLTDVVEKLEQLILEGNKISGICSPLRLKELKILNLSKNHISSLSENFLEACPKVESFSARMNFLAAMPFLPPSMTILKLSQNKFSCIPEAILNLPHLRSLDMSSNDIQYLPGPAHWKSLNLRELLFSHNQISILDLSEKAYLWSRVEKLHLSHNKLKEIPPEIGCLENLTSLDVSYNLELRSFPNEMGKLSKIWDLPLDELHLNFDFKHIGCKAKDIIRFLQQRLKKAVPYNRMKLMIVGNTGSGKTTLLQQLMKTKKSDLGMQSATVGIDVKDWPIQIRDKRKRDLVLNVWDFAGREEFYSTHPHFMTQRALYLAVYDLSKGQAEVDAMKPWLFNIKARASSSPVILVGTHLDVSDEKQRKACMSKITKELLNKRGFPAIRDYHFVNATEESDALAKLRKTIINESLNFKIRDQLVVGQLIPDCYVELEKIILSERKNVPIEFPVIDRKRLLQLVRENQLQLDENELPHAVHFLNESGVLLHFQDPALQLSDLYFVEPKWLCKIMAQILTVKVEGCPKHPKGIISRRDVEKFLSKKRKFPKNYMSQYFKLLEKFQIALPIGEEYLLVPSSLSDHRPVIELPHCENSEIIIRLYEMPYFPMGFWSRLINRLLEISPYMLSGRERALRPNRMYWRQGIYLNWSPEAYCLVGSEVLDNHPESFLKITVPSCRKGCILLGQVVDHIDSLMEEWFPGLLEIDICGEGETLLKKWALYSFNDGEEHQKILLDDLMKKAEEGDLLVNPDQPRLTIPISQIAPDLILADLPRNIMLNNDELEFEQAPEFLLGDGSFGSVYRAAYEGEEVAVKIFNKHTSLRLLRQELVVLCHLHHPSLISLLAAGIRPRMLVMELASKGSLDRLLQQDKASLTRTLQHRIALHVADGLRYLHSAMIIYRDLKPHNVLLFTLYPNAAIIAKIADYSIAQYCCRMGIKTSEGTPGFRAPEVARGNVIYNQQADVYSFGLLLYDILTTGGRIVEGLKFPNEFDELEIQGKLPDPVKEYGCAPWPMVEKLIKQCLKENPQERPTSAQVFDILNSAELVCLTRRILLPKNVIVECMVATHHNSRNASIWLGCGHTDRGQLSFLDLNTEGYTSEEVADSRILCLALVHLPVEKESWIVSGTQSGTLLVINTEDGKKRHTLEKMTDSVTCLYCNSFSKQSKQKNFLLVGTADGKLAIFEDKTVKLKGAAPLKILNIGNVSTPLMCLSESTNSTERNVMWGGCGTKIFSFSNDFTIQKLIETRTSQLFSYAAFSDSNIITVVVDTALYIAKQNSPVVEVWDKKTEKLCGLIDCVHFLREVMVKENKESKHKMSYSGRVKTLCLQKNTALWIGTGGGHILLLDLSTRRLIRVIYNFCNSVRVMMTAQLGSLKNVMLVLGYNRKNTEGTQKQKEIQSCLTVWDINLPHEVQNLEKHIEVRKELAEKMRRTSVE

Structure (SMILES)	LRRK2 pIC50
Clc1cc2cnc(Nc3cnn(CC4CC4)c3Cl)nc2cc1C1CCN(C2COC2)CC1 [Ex-4.16, 6-chloro-N-[5-chloro-1-(cyclopropylmethyl)-1H-pyrazol-4-yl]-7-[1-(oxetan-3-yl)piperidin-4-yl]quinazolin-2-amine]	>9.20
Clc1cc2cnc(Nc3cnn(C4COC4)c3Cl)nc2cc1C1CCN(C2COC2)CC1 [Ex-4.17, 6-chloro-N-[5-chloro-1-(oxetan-3-yl)-1H-pyrazol-4-yl]-7-[1-(oxetan-3-yl)piperidin-4-yl]quinazolin-2-amine]	>9.20
FC(F)n1cc(Nc2ncc3cc(Cl)c(C4CCN(C5COC5)CC4)cc3n2)cn1 [Ex-4.18, 6-chloro-N-[1-(difluoromethyl)-1H-pyrazol-4-yl]-7-[1-(oxetan-3-yl)piperidin-4-yl]quinazolin-2-amine]	9.16
Clc1cc2cnc(Nc3cnn(CC4CCC4)c3Cl)nc2cc1C1CCN(C2COC2)CC1 [Ex-4.19, 6-chloro-N-[5-chloro-1-(cyclobutylmethyl)-1H-pyrazol-4-yl]-7-[1-(oxetan-3-yl)piperidin-4-yl]quinazolin-2-amine]	9.17
CC1(CN2CCC(c3cc4nc(Nc5cnn(C6CC6)c5Cl)ncc4cc3Cl)CC2)COC1 [Ex-4.20, 6-chloro-N-(5-chloro-1-cyclopropyl-1H-pyrazol-4-yl)-7-{1-[(3-methyloxetan-3-yl)methyl]piperidin-4-yl}quinazolin-2-amine]	8.11
CC1(n2ncc(Nc3ncc4cc(Cl)c(C5(F)CCN(C6COC6)CC5)cc4n3)c2Cl)CC1 [Ex-4.24, 6-chloro-N-[5-chloro-1-(1-methylcyclopropyl)-1H-pyrazol-4-yl]-7-[4-fluoro-1-(oxetan-3-yl)piperidin-4-yl]quinazolin-2-amine]	>9.20
FC1(c2cc3nc(Nc4cnn(C5CC5)c4Cl)ncc3cc2Cl)CCN(C2COC2)CC1 [Ex-4.31, 6-chloro-N-(5-chloro-1-cyclopropyl-1H-pyrazol-4-yl)-7-[4-fluoro-1-(oxetan-3-yl)piperidin-4-yl]quinazolin-2-amine]	8.23
CN1CCC(F)(c2cc3nc(Nc4cnn(C5CC5)c4Cl)ncc3cc2Cl)CC1 [Ex-4.36, 6-chloro-N-(5-chloro-1-cyclopropyl-1H-pyrazol-4-yl)-7-(4-fluoro-1-methylpiperidin-4-yl)quinazolin-2-amine]	8.29
Cc1cc(Nc2ncc3cc(Cl)c(C4CCN(C5COC5)CC4)cc3n2)sn1 [Ex-4.45, 6-chloro-N-(3-methyl-1,2-thiazol-5-yl)-7-[1-(oxetan-3-yl)piperidin-4-yl]quinazolin-2-amine]	>9.20
Cc1c(Nc2ncc3cc(Cl)c(C4CCN(C5COC5)CC4)cc3n2)cnn1CCF [Ex-4.54, 6-chloro-N-[1-(2-fluoroethyl)-5-methyl-1H-pyrazol-4-yl]-7-[1-(oxetan-3-yl)piperidin-4-yl]quinazolin-2-amine]	>9.20
FC(F)Cn1ncc(Nc2ncc3cc(Cl)c(C4CCN(C5COC5)CC4)cc3n2)c1Cl [Ex-4.55, 6-chloro-N-[5-chloro-1-(2,2-difluoroethyl)-1H-pyrazol-4-yl]-7-[1-(oxetan-3-yl)piperidin-4-yl]quinazolin-2-amine]	>9.20
CC1(n2ncc(Nc3ncc4cc(Cl)c(C5CCN(C6COC6)CC5)cc4n3)c2Cl)CC1 [Ex-4.56, 6-chloro-N-[5-chloro-1-(1-methylcyclopropyl)-1H-pyrazol-4-yl]-7-[1-(oxetan-3-yl)piperidin-4-yl]quinazolin-2-amine]	>9.20
[2H]C1(N2CCC(c3cc4nc(Nc5cnn(C6CC6)c5Cl)ncc4cc3Cl)CC2)COC1 [Ex-4.57, 6-chloro-N-(5-chloro-1-cyclopropyl-1H-pyrazol-4-yl)-7-(1-(oxetan-3-yl-3-d)piperidin-4-yl)quinazolin-2-amine]	>9.20
[2H]C1([2H])OC([2H])([2H])C1([2H])N1CCC(c2cc3nc(Nc4cnn(CC(C)(C)O)c4Cl)ncc3cc2Cl)CC1 [Ex-4.58, 1-(5-chloro-4-((6-chloro-7-(1-(oxetan-3-yl-d5)piperidin-4-yl)quinazolin-2-yl)amino)-1H-pyrazol-1-yl)-2-methylpropan-2-ol]	>9.20
[2H]C1(N2CCC(c3cc4nc(Nc5cnn(CC(C)(C)O)c5Cl)ncc4cc3Cl)CC2)COC1 [Ex-4.59, 1-(5-chloro-4-((6-chloro-7-(1-(oxetan-3-yl-3-d)piperidin-4-yl)quinazolin-2-yl)amino)-1H-pyrazol-1-yl)-2-methylpropan-2-ol]	>9.20
CN1CCC(c2cc3nc(Nc4cnn(CC(C)(C)O)c4Cl)ncc3cc2Cl)CC1 [Ex-4.72, 1-(5-chloro-4-{[6-chloro-7-(1-methylpiperidin-4-yl)quinazolin-2-yl]amino}-1H-pyrazol-1-yl)-2-methylpropan-2-ol]	8.92
N#CC1(CN2CCC(c3cc4nc(Nc5cnn(C6CC6)c5Cl)ncc4cc3Cl)CC2)CC1 [Ex-4.78, 1-[(4-{6-chloro-2-[(5-chloro-1-cyclopropyl-1H-pyrazol-4-yl)amino]quinazolin-7-yl}piperidin-1-yl)methyl]cyclopropane-1-carbonitrile]	7.95

Structure (SMILES)	LRRK2 pIC50
Cc1cc2cnc(Nc3cnn(CC(C)(C)O)c3Cl)nc2cc1C1CCN(C2COC2)CC1 [Ex-4.80, 1-[5-chloro-4-({6-methyl-7-[1-(oxetan-3-yl)piperidin-4-yl]quinazolin-2-yl}amino)-1H-pyrazol-1-yl]-2-methylpropan-2-ol]	8.87
Cc1cc2cnc(Nc3cnn(C4CC4)c3Cl)nc2cc1C1CCN(C2COC2)CC1 [Ex-4.84, N-(5-chloro-1-cyclopropyl-1H-pyrazol-4-yl)-6-methyl-7-[1-(oxetan-3-yl)piperidin-4-yl]quinazolin-2-amine]	9.01
CC(C)(O)Cn1ncc(Nc2ncc3cc(Cl)c(C4(F)CCN(C5COC5)CC4)cc3n2)c1Cl [Ex-4.86, 1-[5-chloro-4-({6-chloro-7-[4-fluoro-1-(oxetan-3-yl)piperidin-4-yl]quinazolin-2-yl}amino)-1H-pyrazol-1-yl]-2-methylpropan-2-ol]	8.09
Clc1cc2cnc(Nc3cnn(C4CCC4)c3Cl)nc2cc1C1CCNCC1 [Ex-4.89, 6-chloro-N-(5-chloro-1-cyclobutyl-1H-pyrazol-4-yl)-7-(piperidin-4-yl)quinazolin-2-amine]	9.13
Clc1cc2cnc(Nc3cnn(CC4CC4)c3Cl)nc2cc1C1CCNCC1 [Ex-4.90, 6-chloro-N-[5-chloro-1-(cyclopropylmethyl)-1H-pyrazol-4-yl]-7-(piperidin-4-yl)quinazolin-2-amine]	>9.20
FC(F)Cn1ncc(Nc2ncc3cc(Cl)c(C4CCNCC4)cc3n2)c1Cl [Ex-4.93, 6-chloro-N-[5-chloro-1-(2,2-difluoroethyl)-1H-pyrazol-4-yl]-7-(piperidin-4-yl)quinazolin-2-amine]	8.70
CC(C)(O)Cn1ncc(Nc2ncc3cc(Cl)c(C4CCNCC4)cc3n2)c1Cl [Ex-4.94, 1-(5-chloro-4-{[6-chloro-7-(piperidin-4-yl)quinazolin-2-yl]amino}-1H-pyrazol-1-yl)-2-methylpropan-2-ol]	8.46
N#CCCN1CCC(c2cc3nc(Nc4cnn(CC(F)F)c4Cl)ncc3cc2Cl)CC1 [Ex-4.95, 3-[4-(6-chloro-2-{[5-chloro-1-(2,2-difluoroethyl)-1H-pyrazol-4-yl]amino}quinazolin-7-yl)piperidin-1-yl]propanenitrile]	>9.20
Cc1cc(Nc2ncc3cc(Cl)c(C4CCN(C5CS(=O)(=O)C5)CC4)cc3n2)sn1 [Ex-4.96, 3-(4-(6-chloro-2-((3-methylisothiazol-5-yl)amino)quinazolin-7-yl)piperidin-1-yl)thietane 1,1-dioxide]	9.09
CCN1CCC(c2cc3nc(Nc4cnn(CC(C)(C)O)c4Cl)ncc3cc2Cl)CC1 [Ex-4.97, 1-(5-chloro-4-{[6-chloro-7-(1-ethylpiperidin-4-yl)quinazolin-2-yl]amino}-1H-pyrazol-1-yl)-2-methylpropan-2-ol]	8.57
CC1(N2CCC(c3cc4nc(Nc5cnn(CC(F)F)c5Cl)ncc4cc3Cl)CC2)COC1 [Ex-4.98, 6-chloro-N-[5-chloro-1-(2,2-difluoroethyl)-1H-pyrazol-4-yl]-7-[1-(3-methyloxetan-3-yl)piperidin-4-yl]quinazolin-2-amine]	>9.20
Clc1cc2cnc(Nc3cnn(C4CC4)c3Cl)nc2cc1C1CC2CCC(C1)N2C1COC1 (stereo not drawn) [Ex-4.112, cis or trans 6-chloro-N-(5-chloro-1-cyclopropyl-1H-pyrazol-4-yl)-7-(8-(oxetan-3-yl)-8-azabicyclo[3.2.1]octan-3-yl)quinazolin-2-amine]	>9.20
Clc1cc2cnc(Nc3cnn(C4CC4)c3Cl)nc2cc1C1CC2COCC(C1)N2C1COC1 (stereo not drawn) [Ex-4.113, cis or trans 6-chloro-N-(5-chloro-1-cyclopropyl-1H-pyrazol-4-yl)-7-(9-(oxetan-3-yl)-3-oxa-9-azabicyclo[3.3.1]nonan-7-yl)quinazolin-2-amine]	8.11
CC1CC(c2cc3nc(Nc4cnn(C5CC5)c4Cl)ncc3cc2Cl)CC(C)N1C1COC1 (stereo not drawn) [Ex-4.118, cis or trans 6-chloro-N-(5-chloro-1-cyclopropyl-1H-pyrazol-4-yl)-7-(2,6-dimethyl-1-(oxetan-3-yl)piperidin-4-yl)quinazolin-2-amine]	8.46
Clc1cc2cnc(Nc3cnn(C4CC4)c3Cl)nc2cc1C1CC2(C1)CN(C1COC1)C2 [Ex-4.119, 6-chloro-N-(5-chloro-1-cyclopropyl-1H-pyrazol-4-yl)-7-(2-(oxetan-3-yl)-2-azaspiro[3.3]heptan-6-yl)quinazolin-2-amine]	7.96
Cc1c(Nc2ncc3cc(Cl)c(C4CCN(C5CC[C@@H]6C[C@H]56)CC4)cc3n2)cnn1C1CC1 (stereo partly drawn) [Ex-4.172, 7-{1-[(1S,5R)-bicyclo[3.1.0]hexan-2-yl]piperidin-4-yl}-6-chloro-N-(1-cyclopropyl-5-methyl-1H-pyrazol-4-yl)quinazolin-2-amine]	7.53

Reference: patent publication US12540131B2 (Merck Sharp & Dohme LLC, priority 2019, dated 2026)
